In ChEMBL document CHEMBL4428095, “Evolution of physicochemical properties of melanin concentrating hormone receptor 1 (MCHr1) antagonists” (Bioorg Med Chem Lett, 2016):

Columns and labels:
[1] = Protein binding in human serum; format: ADME, cell-free; conditions: read-out: PB (converted)
[2] = Protein binding in rat serum; format: ADME, cell-free
[3] = Protein binding in monkey serum; format: ADME, cell-free, Macaca mulatta; conditions: rhesus monkey, read-out: PB (converted)

SMILES: COc1cc(-n2cnc3cc(-c4ccc(Cl)cc4)sc3c2=O)ccc1OC[C@H](O)C1CC1
- fraction unbound [1]: 0.005
- PB [2]: 99.8%
- fraction unbound [3]: 0.007
